“And” between values parts separate entries of the source, which are not always exact repeats. Identical values can stand only once. Positions of bridges follow the written chain, without caps; N, C: chain ends.
Columns and labels:
[1] = system: Spike RBD coated magnetic beads / RAW 264.7 macrophages; test: Antibody-dependent cellular phagocytosis (ADCP), RAW 264.7 macrophages and Spike RBD coated magnetic beads, flow cytometry; assay type: cell-based; conditions: 37° C., 2 hours, read-out: SARS-COV-2 ADCP EC50
In short: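 Spike RBD-coated magnetic beads were mixed with RAW 264.7 macrophages (50,000 cells per well) and compounds at set final concentrations. The mixture was incubated 2 hours at 37° C, and bead uptake was measured by flow cytometry.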

SARS-CoV-2 Spike protein = SARS-CoV-2 Spike protein (Severe acute respiratory syndrome coronavirus 2, UniProt P0DTC2); test: Ternary binding of SARS-CoV-2 Spike protein (293T cells expressing Spike-GFP, IgG-AF647, flow cytometry); assay type: cell-based; conditions: 293T cells expressing Spike-GFP; IgG-AF647 10 μg/ml; repeat values/batches listed separately; read-out: SARS-CoV-2 Ternary binding EC50
[2] = system: live SARS-CoV-2 Virus (wildtype); test: Neutralization of live SARS-CoV-2 virus, wildtype (Vero E6 cells, nucleoprotein ELISA); assay type: cell-based; conditions: live virus neutralization, isolate Seattle WA (IITRI), Vero E6
[3] = biological target: T1, SARS-CoV-2 Spike A (wild-type) (Severe acute respiratory syndrome coronavirus 2, UniProt P0DTC2); test: MSD ACE2 competition assay (inhibition of Spike binding with ACE2, ECL), A (wild-type); conditions: IC50 Wild Type, Wild Type Spike
T1 construct: purchased Meso Scale Diagnostics, LLC V-PLEX SARS-CoV-2 Panel 13 (ACE2) Kit / Panel 23 (ACE2) Kit

native human IgG1 = test: Ligand binding to native human IgG1 by Bio-Layer Interferometry (BLI); conditions: read-out: Octet Native IgG1 Binding KD
Experimental: The binding of exemplary compounds to native human IgG1 was measured by Bio-Layer Interferometry (BLI) using the ForteBio Octet® 96e platform (Fremont, CA). The binding assay was performed using the Protein L (ProL) Dip and Read Biosensors (ForteBio 18-5085) in a 96-well black flat bottom assay plate (Greiner Bio-One 655209; Monroe, NC) with the following steps: (1) 60 seconds of baseline; (2) 600 seconds of loading with 50 μg/ml of Native Human IgG1 (Abcam ab184886; Cambridge, UK); (3) 60 seconds of baseline; (4) 180 seconds of association with a dilution series of ligand in Assay Buffer (PBS (Gibco 10010; Grand Island, New York), 0.1% (w/v) BSA (American Bio AB01088-00100; Canton, MA), 0.05% (v/v) Tween 20 (Fisher BioReagents™ BP337-500; Pittsburgh, PA), pH 7.4), consisting of seven concentrations. The eighth tip in the column was run in Assay Buffer to serve as a reference sensor, the signal of which was subtracted from the sample sensors. (5) 180 seconds of dissociation in Assay Buffer.
The data was analyzed with the Octet® Data Analysis HT software. The processed data was globally fit to a 1:1 binding model for determination of the equilibrium dissociation constant (KD) and is shown in Table 7.

Q: Which results are given for “Ac-DKEWILQKIYEIMRLLDELGHAEASMRVSDLIYEFMKKGDERLLEEAERLLEEVERDCAWHLGELVWCT (disulfide 58-68) [Compound 110]”?
A: EC50 [1]: 1500 pM and 1200 pM; EC50 (SARS-CoV-2 Spike protein): 140 pM and 130 pM; EC50 [2]: 5.8 pM; IC50 [3]: < 10000 pM

Q: Which EC50 [1] does the source give for “Ac-DKEWILQKIYEIMRLLDELGHAEASMRVSDLIYEFMKKGPASPASPASPASDCAWHLGELVWCT (disulfide 53-63) [Compound 167]” here?
A: 110 pM

Q: What about the Kd (native human IgG1) of the same substance?
A: < 1000 pM

Q: And the EC50 (SARS-CoV-2 Spike protein)?
A: 240 pM

Q: And the IC50 [3]?
A: 10800 pM

— patent US20260306644A1, “ANTIBODY RECRUITING MOLECULES FOR THE TREATMENT OF CORONAVIRUS DISEASE-19” (priority 2023, published 2026)
